Test results: patent US9090600B2, “Fungicidal 4-substituted-3-{phenyl[(heterocyclylmethoxy)imino]methyl}-1,2,4-oxadizol-5(4H)-one derivatives” (BAYER INTELLECTUAL PROPERTY GMBH, priority 2011, dated 2015)
Marks after values point to notes of the source that are not given here.

Conditions: pH 2.7
For `Nc1cccc(CON=C(c2ccccc2)c2noc(=O)[nH]2)n1` (mixture of isomers) [Example 96], the LogP was 1.2 [a]. With `Cc1cccc(C(=NOCc2cccc(N)n2)c2noc(=O)[nH]2)c1` (mixture of isomers) [Example 121] the LogP was 1.47 [a]. With `C#CCCOC(=O)Nc1cccc(CON=C(C(N)=NO)c2ccccc2)n1` (mixture of isomers) [Example V-1] the LogP was 2.1 [a]. For `CC(C)(C)OC(=O)Nc1cccc(CON=C(C(N)=NO)c2ccccc2F)n1` (mixture of isomers) [Example V-5], the LogP was 2.68 [a]. For `COc1cccc(C(=NOCc2cccc(N)n2)C(N)=NO)c1` (mixture of isomers) [Example V-6], the LogP was 0.58 [a]. In the case of `Cc1cccc(C(=NOCc2cccc(N)n2)C(N)=NO)c1` (mixture of isomers) [Example V-7], the LogP is reported as 0.75 [a]. For `CC(C)(C)OC(=O)Nc1cccc(CON=C(C(N)=NO)c2ccc(F)cc2)n1` (mixture of isomers) [Example V-8], the LogP was 2.68 [a]. For `NC(=NO)C(=NOCc1cccc(N)n1)c1ccccc1` (mixture of isomers) [Example V-9], the LogP was 0.39 [a]. With `NC(=NO)C(=NOCc1csc(N)n1)c1ccccc1Cl` (mixture of isomers) [Example V-10] the LogP was 0.73 [a]. With `CC(C)(C)OC(=O)Nc1cccc(CON=C(C(N)=NO)c2ccccc2)n1` (mixture of isomers) [Example V-11] the LogP was 2.54 [a]. For `NC(=NO)C(=NOCc1cccc(N)n1)c1cccc(F)c1` (mixture of isomers) [Example V-12], the LogP was 0.56 [a]. For `COc1ccc(C(=NOCc2cccc(NC(=O)OC(C)(C)C)n2)C(N)=NO)cc1` (mixture of isomers) [Example V-13], the LogP was 2.51 [a]. For `CC(C)(C)OC(=O)Nc1cccc(CON=C(C(N)=NO)c2ccccc2)n1` (mixture of isomers) [Example V-14], the LogP was 2.57 [a]. In the case of `Cc1ccc(C(=NOCc2csc(N)n2)C(N)=NO)cc1` (mixture of isomers) [Example V-15], the LogP is reported as 0.89 [a]. In the case of `CC(C)C1(C(=O)Nc2cccc(CO/N=C(/c3ccccc3)c3noc(=O)n3C)n2)CC1(Cl)Cl` (racemic) [Example 371], the LogP is reported as 4.35 [a]. In the case of `Cc1ccc(/C(=N/OCc2csc(NC(=O)C3COc4ccccc4O3)n2)c2noc(=O)n2C)cc1` (racemic) [Example 392], the LogP is reported as 3.9 [a]. In the case of `CC#CCC(C)OC(=O)Nc1cccc(CO/N=C(/c2ccccc2)c2noc(=O)n2C)n1` (racemic) [compound 455], the LogP is reported as 3.89 [a]. For `CCCCC(CC)COC(=O)Nc1cccc(CO/N=C(/c2ccccc2)c2noc(=O)n2C)n1` (racemic) [compound 463], the LogP was 5.54 [a]. In the case of `Cn1c(/C(=N\OCc2cccc(NC(=O)OCC3COC(=O)O3)n2)c2ccccc2)noc1=O` (racemic) [compound 474], the LogP is reported as 2.75 [a]. With `CC(CC1CC1)OC(=O)Nc1cccc(CO/N=C(/c2ccccc2)c2noc(=O)n2C)n1` (racemic) [compound 475] the LogP was 4.32 [a]. In the case of `C=CCC(C)OC(=O)Nc1cccc(CO/N=C(/c2ccccc2)c2noc(=O)n2C)n1` (racemic) [compound 479], the LogP is reported as 4.01 [a]. For `C#CCCOC(=O)Nc1cccc(CO/N=C(/c2ccccc2)c2noc(=O)[nH]2)n1` [Example 22], the LogP was 3.09 [a]. With `Cn1c(/C(=N\OCc2csc(NC(=O)COc3ccccc3F)n2)c2ccccc2)noc1=O` [Example 28] the LogP was 3.51 [a]. For `COc1ccccc1OCC(=O)Nc1cccc(CO/N=C(/c2ccccc2)c2noc(=O)n2C)n1` [Example 31], the LogP was 3.8 [a]. For `Cn1c(/C(=N\OCc2csc(NC(=O)COc3ccc(F)cc3)n2)c2ccccc2)noc1=O` [Example 38], the LogP was 3.53 [a]. For `CCCCCOC(=O)Nc1nc(CO/N=C(/c2ccc(C)cc2)c2noc(=O)n2C)cs1` [Example 41], the LogP was 4.41 [a]. For `CC(C)CCCOC(=O)Nc1cccc(CO/N=C(/c2ccccc2)c2noc(=O)n2C)n1` [Example 45], the LogP was 4.81 [a]. In the case of `Cn1c(/C(=N\OCc2cccc(NC(=O)OCCc3cccc(Br)c3)n2)c2ccccc2)noc1=O` [Example 49], the LogP is reported as 4.61 [a]. In the case of `CC(Cc1ccccc1)OC(=O)Nc1cccc(CO/N=C(/c2ccccc2)c2noc(=O)n2C)n1` (stereo not shown) [Example 60], the LogP is reported as 4.49 [a]. With `CC(Oc1cccc(Cl)c1)C(=O)Nc1cccc(CO/N=C(/c2ccccc2)c2noc(=O)n2C)n1` (stereo not shown) [Example 64] the LogP was 4.38 [a]. In the case of `Cn1c(/C(=N\OCc2cccc(NC(=O)COc3ccc(Br)cc3)n2)c2ccccc2)noc1=O` [Example 65], the LogP is reported as 4.2 [a]. In the case of `Cn1c(/C(=N\OCc2cccc(NC(=O)COc3ccc(F)cc3)n2)c2ccccc2)noc1=O` [Example 66], the LogP is reported as 3.73 [a]. In the case of `COc1cccc(OC(C)C(=O)Nc2cccc(CO/N=C(/c3ccccc3)c3noc(=O)n3C)n2)c1` (stereo not shown) [Example 69], the LogP is reported as 3.97 [a]. With `Cc1ccccc1OCC(=O)Nc1cccc(CO/N=C(/c2ccccc2)c2noc(=O)n2C)n1` [Example 76] the LogP was 4.17 [a]. In the case of `Cn1c(/C(=N\OCc2csc(N)n2)c2ccccc2Cl)noc1=O` [Example 90], the LogP is reported as 1.72 [a]. In the case of `Cn1c(/C(=N\OCc2cccc(NC(=O)COC3CCCC3)n2)c2ccccc2)noc1=O` [Example 94], the LogP is reported as 4.04 [a]. For `Cn1c(/C(=N\OCc2cccc(NC(=O)OC(C)(C)C)n2)c2ccccc2F)noc1=O` [Example 97], the LogP was 3.92 [a]. With `Cn1c(/C(=N\OCc2cccc(NC(=O)COc3cccc(Cl)c3)n2)c2ccccc2)noc1=O` [Example 105] the LogP was 4.1 [a]. For `COc1ccccc1OC(C)C(=O)Nc1cccc(CO/N=C(/c2ccccc2)c2noc(=O)n2C)n1` (stereo not shown) [Example 115], the LogP was 4.15 [a]. For `Cn1c(/C(=N\OCc2cccc(NC(=O)COc3ccccc3F)n2)c2ccccc2)noc1=O` [Example 125], the LogP was 3.76 [a]. With `CC(OCc1ccccc1)C(=O)Nc1nc(CO/N=C(/c2ccccc2)c2noc(=O)n2C)cs1` (stereo not shown) [Example 126] the LogP was 3.85 [a]. With `Cc1cccc(OC(C)C(=O)Nc2cccc(CO/N=C(/c3ccccc3)c3noc(=O)n3C)n2)c1` (stereo not shown) [Example 128] the LogP was 4.35 [a]. In the case of `Nc1cccc(CON=C(c2cccc(F)c2)c2noc(=O)[nH]2)n1` [Example 129], the LogP is reported as 1.35 [a]. For `CC(C)(C)OC(=O)Nc1cccc(CO/N=C(/c2ccccc2)c2noc(=O)[nH]2)n1` [Example 135], the LogP was 3.76 [a]. In the case of `COc1cccc(/C(=N/OCc2cccc(N(C(=O)OC(C)(C)C)C(=O)OC(C)(C)C)n2)c2noc(=O)n2C)c1` [Example 141], the LogP is reported as 4.44 [a]. In the case of `COc1cccc(/C(=N/OCc2cccc(NC(=O)OC(C)CC(C)C)n2)c2noc(=O)n2C)c1` (stereo not shown) [Example 149], the LogP is reported as 4.72 [a]. In the case of `CCCCCOC(=O)Nc1nc(CO/N=C(/c2cccc(F)c2)c2noc(=O)n2C)cs1` [Example 150], the LogP is reported as 4.19 [a]. For `CC(OCc1ccccc1)C(=O)Nc1cccc(CO/N=C(/c2ccccc2)c2noc(=O)n2C)n1` (stereo not shown) [Example 156], the LogP was 4.15 [a]. With `COc1ccc(/C(=N/OCc2cccc(N)n2)c2noc(=O)n2C)cc1` [Example 157] the LogP was 1.35 [a]. With `Cn1c(/C(=N\OCc2csc(NC(=O)COc3ccccc3Br)n2)c2ccccc2)noc1=O` [Example 159] the LogP was 3.89 [a]. With `CCCCC(C)(C)C(=O)Nc1nc(CO/N=C(/c2ccccc2)c2noc(=O)n2C)cs1` [Example 160] the LogP was 4.48 [a]. With `Cn1c(/C(=N\OCc2cccc(NC(=O)SC(C)(C)C)n2)c2ccccc2)noc1=O` [Example 162] the LogP was 4.39 [a]. With `Cn1c(/C(=N\OCc2csc(NC(=O)COc3ccc(Cl)cc3)n2)c2ccccc2)noc1=O` [Example 164] the LogP was 3.85 [a]. In the case of `CCCCC(=O)Nc1nc(CO/N=C(/c2ccc(C)cc2)c2noc(=O)n2C)cs1` [Example 169], the LogP is reported as 3.7 [a]. For `Cn1c(/C(=N\OCc2cccc(NC(=O)c3ccc(I)cc3)n2)c2ccccc2)noc1=O` [Example 174], the LogP was 4.29 [a]. For `CC(Oc1cccc(Br)c1)C(=O)Nc1cccc(CO/N=C(/c2ccccc2)c2noc(=O)n2C)n1` (stereo not shown) [Example 179], the LogP was 4.46 [a]. For `COc1ccccc1C(=O)Nc1cccc(CO/N=C(/c2ccccc2)c2noc(=O)n2C)n1` [Example 181], the LogP was 3.87 [a]. For `CCCCOC(=S)Nc1cccc(CO/N=C(/c2ccccc2)c2noc(=O)n2C)n1` [Example 183], the LogP was 4.53 [a]. With `CCC1(C(=O)Nc2cccc(CO/N=C(/c3ccccc3)c3noc(=O)n3C)n2)C(C)C1(Cl)Cl` (stereo not shown) [Example 189] the LogP was 4.35 [a]. With `CC(C)(C)OC(=O)Nc1cccc(CO/N=C(\c2noc(=O)[nH]2)c2ccccc2F)n1` [Example 193] the LogP was 3.68 [a]. In the case of `Cn1c(/C(=N\OCc2csc(NC(=O)COCc3ccccc3)n2)c2ccccc2)noc1=O` [Example 194], the LogP is reported as 3.6 [a]. For `Cn1c(/C(=N\OCc2cccc(NC(=O)Cc3ccc(Cl)cc3)n2)c2ccccc2)noc1=O` [Example 196], the LogP was 3.92 [a]. In the case of `Cn1c(/C(=N\OCc2csc(NC(=O)Cc3ccccc3)n2)c2cccc(F)c2)noc1=O` [Example 203], the LogP is reported as 3.46 [a]. In the case of `CC(Oc1ccc(Br)cc1)C(=O)Nc1cccc(CO/N=C(/c2ccccc2)c2noc(=O)n2C)n1` (stereo not shown) [Example 204], the LogP is reported as 4.46 [a]. For `Cn1c(/C(=N\OCc2cccc(NC(=O)OCCCC(F)(F)F)n2)c2ccccc2)noc1=O` [Example 205], the LogP was 3.85 [a]. With `Cc1ccccc1OCC(=O)Nc1nc(CO/N=C(/c2ccccc2)c2noc(=O)n2C)cs1` [Example 213] the LogP was 3.85 [a]. In the case of `CC(C)(C)OC(=O)Nc1cccc(CO/N=C(/c2ccc(F)cc2)c2noc(=O)[nH]2)n1` [Example 214], the LogP is reported as 3.78 [a]. With `COc1ccc(C(=O)Nc2cccc(CO/N=C(/c3ccccc3)c3noc(=O)n3C)n2)cc1` [Example 217] the LogP was 3.53 [a]. In the case of `Cn1c(/C(=N\OCc2csc(NC(=O)C(F)(F)Oc3ccccc3)n2)c2ccccc2)noc1=O` [Example 220], the LogP is reported as 3.89 [a]. For `Cn1c(/C(=N\OCc2cccc(NC(=O)C3(c4ccc(Cl)cc4Cl)CC3)n2)c2ccccc2)noc1=O` [Example 222], the LogP was 4.96 [a]. For `CC(Oc1ccccc1Cl)C(=O)Nc1cccc(CO/N=C(/c2ccccc2)c2noc(=O)n2C)n1` (stereo not shown) [Example 231], the LogP was 4.41 [a]. For `Cn1c(/C(=N\OCc2csc(NC(=O)C3COc4ccccc4O3)n2)c2cccc(F)c2)noc1=O` (stereo not shown) [Example 234], the LogP was 3.7 [a]. With `Cn1c(/C(=N\OCc2cccc(NC(=O)OCCc3ccc(Br)cc3)n2)c2ccccc2)noc1=O` [Example 238] the LogP was 4.63 [a].
